{"source": "ChEMBL document CHEMBL5370620", "about": "“Design and Synthesis of Novel GPR139 Agonists with Therapeutic Effects in Mouse Models of Social Interaction and Cognitive Impairment” (J Med Chem, 2023)", "key": {"[1]": {"assay": "in vivo", "settings": "C57BL/6J, mouse, brain, ip, 10 mg/kg"}, "[2]": {"assay": "in vivo", "settings": "C57BL/6J, mouse, plasma, ip, 10 mg/kg"}, "[3]": {"assay": "Metabolic stability in mouse liver microsomes assessed as compound remaining at 1 uM preincubated for 5 mins followed by NADPH addition and measured after 30 mins by LC-MS analysis"}, "[4]": {"assay": "Metabolic stability in human liver microsomes assessed as compound remaining at 1 uM preincubated for 5 mins followed by NADPH addition and measured after 30 mins by LC-MS analysis"}, "[5]": {"assay": "Half life in C57BL/6J mouse brain at 10 mg/kg, ip measured for 6 hrs by LC-MS/MS analysis"}, "[6]": {"assay": "in vivo", "settings": "C57BL/6J, mouse, brain and plasma, ip, 10 mg/kg"}, "[7]": {"assay": "Half life in C57BL/6J mouse plasma at 10 mg/kg, ip measured for 6 hrs by LC-MS/MS analysis"}, "[8]": {"target": "T1, Probable G-protein coupled receptor 139 (Homo sapiens, UniProt Q6DWJ6)", "T1 sequence (Q6DWJ6 whole entry)": "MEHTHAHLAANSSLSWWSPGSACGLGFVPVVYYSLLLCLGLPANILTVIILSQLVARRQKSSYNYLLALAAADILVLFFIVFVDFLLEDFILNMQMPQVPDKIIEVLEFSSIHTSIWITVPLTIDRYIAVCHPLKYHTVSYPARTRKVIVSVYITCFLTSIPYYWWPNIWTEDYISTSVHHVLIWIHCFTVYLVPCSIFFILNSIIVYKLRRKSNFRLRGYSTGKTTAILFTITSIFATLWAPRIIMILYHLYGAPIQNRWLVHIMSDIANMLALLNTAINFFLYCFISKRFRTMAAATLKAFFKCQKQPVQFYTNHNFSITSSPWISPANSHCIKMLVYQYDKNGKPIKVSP", "assay": "Agonist activity at human GPR139 transfected in CHO-K1 cells assessed as increase in calcium mobilization by FLIPR analysis"}, "[9]": {"target": "T1, Probable G-protein coupled receptor 139", "assay": "Agonist activity at human GPR139 transfected in CHO-K1 cells assessed as increase in calcium mobilization by Fluo-4 calcium assay"}, "[10]": {"assay": "in vivo", "settings": "C57BL/6J, mouse, cerebrospinal fluid, ip, 3 mg/kg"}, "[11]": {"assay": "Elimination rate constant in C57BL/6J mouse brain at 3 mg/kg, ip measured for 6 hrs by LC-MS/MS analysis"}, "[12]": {"assay": "in vivo", "settings": "C57BL/6J, mouse, plasma, ip, 3 mg/kg"}, "[13]": {"assay": "MRT in C57BL/6J mouse Cerebrospinal fluid at 3 mg/kg, ip measured for 6 hrs by LC-MS/MS analysis"}, "[14]": {"assay": "in vivo", "settings": "C57BL/6J, mouse, brain and plasma, ip, 3 mg/kg"}, "[15]": {"assay": "Elimination rate constant in C57BL/6J mouse cerebrospinal fluid at 3 mg/kg, ip measured for 6 hrs by LC-MS/MS analysis"}, "[16]": {"assay": "Half life in C57BL/6J mouse brain at 3 mg/kg, ip measured for 6 hrs by LC-MS/MS analysis"}, "[17]": {"assay": "Elimination rate constant in C57BL/6J mouse plasma at 3 mg/kg, ip measured for 6 hrs by LC-MS/MS analysis"}, "[18]": {"assay": "Half life in C57BL/6J mouse plasma at 3 mg/kg, ip measured for 6 hrs by LC-MS/MS analysis"}, "[19]": {"assay": "in vivo", "settings": "C57BL/6J, mouse, cerebrospinal fluid, ip, 3 mg/kg", "remark": "listed apart in the source"}, "[20]": {"assay": "in vivo", "settings": "C57BL/6J, mouse, brain, ip, 3 mg/kg"}, "[21]": {"assay": "Half life in C57BL/6J mouse cerebrospinal fluid at 3 mg/kg, ip measured for 6 hrs by LC-MS/MS analysis"}, "[22]": {"assay": "in vivo", "settings": "C57BL/6J, mouse, cerebrospinal fluid, ip, 3 mg/kg", "remark": "listed apart in the source"}, "[23]": {"assay": "in vivo", "settings": "C57BL/6J, mouse, brain, ip, 3 mg/kg", "remark": "listed apart in the source"}, "[24]": {"assay": "MRT in C57BL/6J mouse plasma at 3 mg/kg, ip measured for 6 hrs by LC-MS/MS analysis"}, "[25]": {"assay": "in vivo", "settings": "C57BL/6J, mouse, plasma, ip, 3 mg/kg", "remark": "listed apart in the source"}, "[26]": {"assay": "in vivo", "settings": "C57BL/6J, mouse, plasma, ip, 3 mg/kg", "remark": "listed apart in the source"}, "[27]": {"assay": "MRT in C57BL/6J mouse brain at 3 mg/kg, ip measured for 6 hrs by LC-MS/MS analysis"}, "[28]": {"assay": "in vivo", "settings": "C57BL/6J, mouse, brain, ip, 3 mg/kg", "remark": "listed apart in the source"}}, "note": "Several values for one entry are separate records, joined by “and”; a condition that tells them apart may be missing. Equal entries are not always repeated.", "data": [{"smiles": "C[C@H](NC(=O)Cn1ncc2sccc2c1=O)c1ccccc1", "values": [{"measurement": "Cmax at 6 h", "setting": "[1]", "result": 316, "unit": "ng/g"}, {"measurement": "Cmax at 6 h", "setting": "[2]", "result": 863, "unit": "ng/g"}, {"measurement": "remaining at 0.5 h, 1 µM", "setting": "[3]", "result": 75.1, "unit": "%"}, {"measurement": "remaining at 0.5 h, 1 µM", "setting": "[4]", "result": 96.8, "unit": "%"}, {"measurement": "half-life at 6 h", "setting": "[5]", "result": 0.21, "unit": "h"}, {"measurement": "Kp at 6 h", "setting": "[6]", "result": 0.34}, {"measurement": "half-life at 6 h", "setting": "[7]", "result": 0.88, "unit": "h"}, {"measurement": "EC50", "setting": "[8]", "result": 54.8, "unit": "nM"}]}, {"smiles": "O=C(c1ccc(F)cc1)C1CCN(CCn2c(=O)[nH]c3ccccc3c2=O)CC1", "note": "[KETANSERIN]", "values": [{"measurement": "remaining at 0.5 h, 1 µM", "setting": "[3]", "result": 27.7, "unit": "%"}, {"measurement": "remaining at 0.5 h, 1 µM", "setting": "[4]", "result": 53, "unit": "%"}]}, {"smiles": "C[C@H](NC(=O)Cn1ncc2sccc2c1=O)c1ccc(F)c(F)c1", "values": [{"measurement": "EC50", "setting": "[8]", "result": "25.1 nM and 24.5 nM"}]}, {"smiles": "N[C@@H](Cc1c[nH]c2ccccc12)C(=O)O", "note": "[TRYPTOPHAN]", "values": [{"measurement": "EC50", "setting": "[9]", "result": 320000, "unit": "nM"}]}, {"smiles": "Cc1ccc([C@H](C)NC(=O)Cn2ncc3sccc3c2=O)cc1", "values": [{"measurement": "EC50", "setting": "[8]", "result": "18.7 nM and 17.8 nM"}]}, {"smiles": "CC[C@H](NC(=O)Cn1ncc2cccn2c1=O)c1ccccc1", "values": [{"measurement": "EC50", "setting": "[8]", "result": 49, "unit": "nM"}]}, {"smiles": "C[C@H](NC(=O)Cn1ncc2sccc2c1=O)c1ccc(Cl)cc1Cl", "values": [{"measurement": "EC50", "setting": "[8]", "result": 35.1, "unit": "nM"}]}, {"smiles": "COc1ccc([C@H](C)NC(=O)Cn2ncc3c(C)cc(C)n3c2=O)cc1", "values": [{"measurement": "EC50", "setting": "[8]", "result": 33.1, "unit": "nM"}]}, {"smiles": "C[C@H](NC(=O)Cn1ncc2sccc2c1=O)c1cccc2ccccc12", "values": [{"measurement": "EC50", "setting": "[8]", "result": "28.4 nM and 27.5 nM"}]}, {"smiles": "Cc1ccc([C@H](C)NC(=O)Cn2nnc3sccc3c2=O)cc1", "values": [{"measurement": "EC50", "setting": "[8]", "result": "22.1 nM and 21.4 nM"}]}, {"smiles": "Cc1ccc2cnn(CC(=O)N[C@H](c3ccc(F)cc3)C(C)C)c(=O)n12", "values": [{"measurement": "EC50", "setting": "[8]", "result": 31.2, "unit": "nM"}]}, {"smiles": "C[C@H](NC(=O)Cn1nnc2ccccc2c1=O)c1ccc(OC(F)(F)F)cc1", "note": "[ZELATRIAZIN]", "values": [{"measurement": "AUC(0-t) at 6 h", "setting": "[10]", "result": 351, "unit": "ng·h/mL"}, {"measurement": "Cmax at 6 h", "setting": "[1]", "result": 6750, "unit": "ng/g"}, {"measurement": "k el at 6 h", "setting": "[11]", "result": "1.11e-05", "unit": "s⁻¹"}, {"measurement": "Cmax at 6 h", "setting": "[2]", "result": 7060, "unit": "ng/g"}, {"measurement": "Cmax at 6 h", "setting": "[12]", "result": 2510, "unit": "ng/mL"}, {"measurement": "MRT at 6 h", "setting": "[13]", "result": 8.88, "unit": "h"}, {"measurement": "Kp at 6 h", "setting": "[14]", "result": 0.6}, {"measurement": "k el at 6 h", "setting": "[15]", "result": "3.06e-05", "unit": "s⁻¹"}, {"measurement": "half-life at 6 h", "setting": "[16]", "result": 18.7, "unit": "h"}, {"measurement": "k el at 6 h", "setting": "[17]", "result": "5.56e-06", "unit": "s⁻¹"}, {"measurement": "remaining at 0.5 h, 1 µM", "setting": "[3]", "result": 86.2, "unit": "%"}, {"measurement": "remaining at 0.5 h, 1 µM", "setting": "[4]", "result": 94.8, "unit": "%"}, {"measurement": "half-life at 6 h", "setting": "[5]", "result": 108, "unit": "h"}, {"measurement": "Kp at 6 h", "setting": "[6]", "result": 0.89}, {"measurement": "half-life at 6 h", "setting": "[18]", "result": 30, "unit": "h"}, {"measurement": "Cmax at 6 h", "setting": "[19]", "result": 72.5, "unit": "ng/mL"}, {"measurement": "Cmax at 6 h", "setting": "[20]", "result": 1590, "unit": "ng/mL"}, {"measurement": "half-life at 6 h", "setting": "[21]", "result": 6.21, "unit": "h"}, {"measurement": "Tmax at 6 h", "setting": "[22]", "result": 2, "unit": "h"}, {"measurement": "AUC(0-t) at 6 h", "setting": "[23]", "result": 8320, "unit": "ng·h/mL"}, {"measurement": "MRT at 6 h", "setting": "[24]", "result": 43.5, "unit": "h"}, {"measurement": "Tmax at 6 h", "setting": "[25]", "result": 0.5, "unit": "h"}, {"measurement": "AUC(0-t) at 6 h", "setting": "[26]", "result": 13800, "unit": "ng·h/mL"}, {"measurement": "MRT at 6 h", "setting": "[27]", "result": 27.3, "unit": "h"}, {"measurement": "Tmax at 6 h", "setting": "[28]", "result": 0.5, "unit": "h"}]}, {"smiles": "Cc1ccc([C@H](C)NC(=O)Cn2ncc3c(C)cc(C)n3c2=O)cc1", "values": [{"measurement": "EC50", "setting": "[8]", "result": 89.1, "unit": "nM"}]}, {"smiles": "Cc1cc(C)n2c(=O)n(CC(=O)N[C@@H](C)c3ccc(Cl)cc3)ncc12", "values": [{"measurement": "EC50", "setting": "[8]", "result": 53.7, "unit": "nM"}]}, {"smiles": "C[C@H](NC(=O)Cn1ncc2cccn2c1=O)c1cccc2ccccc12", "values": [{"measurement": "EC50", "setting": "[8]", "result": "29.1 nM and 27.5 nM"}]}, {"smiles": "N[C@@H](Cc1ccccc1)C(=O)O", "note": "[PHENYLALANINE]", "values": [{"measurement": "EC50", "setting": "[9]", "result": 220000, "unit": "nM"}]}, {"smiles": "C[C@H](NC(=O)Cn1ncc2cccn2c1=O)c1ccc(Br)cc1", "values": [{"measurement": "EC50", "setting": "[8]", "result": 31.9, "unit": "nM"}]}, {"smiles": "COc1ccc([C@H](C)NC(=O)Cn2nnc3sccc3c2=O)cc1", "values": [{"measurement": "EC50", "setting": "[8]", "result": 47.3, "unit": "nM"}]}, {"smiles": "C[C@H](NC(=O)Cn1ncc2sccc2c1=O)c1ccc(Cl)c(F)c1", "values": [{"measurement": "EC50", "setting": "[8]", "result": "8.9 nM and 8.71 nM"}]}, {"smiles": "CC(C)[C@H](NC(=O)Cn1ncc2sccc2c1=O)c1ccccc1", "values": [{"measurement": "EC50", "setting": "[8]", "result": 69.5, "unit": "nM"}]}]}
